pEC50: −log10 of the molar value.
Biological target: T1, human recombinant mGluR5 (Homo sapiens, UniProt P41594)
T1 construct: expressed in transfected cells; hygromycin and geneticin selection
Assay: positive modulation of mGluR5, calcium based FLIPR assay
Conditions: HEK 293 cell line expressing human recombinant mGluR5; Ca2+ peak height after glutamate at approximately 5% basal stimulation; nonlinear regression
Experimental: The positive modulation of mGluR5 is measured in a HEK 293 cell line expressing human recombinant mGluR5 and is detected with calcium based FLIPR assay. The cells are cultured with DMEM supplemented with 10% FCS, 2 μg/mL tetracycline, 100 μg/mL hygromycin and 500 μg/mL geneticin. The cell culture media is exchanged for tetracycline-free cell culture media 3-7 days before the assay. One day before the assay the cell culture medium is exchanged to DMEM without glutamine and phenol red and supplemented with 10% FCS, 100 μg/mL hygromycin and 500 μg/mL geneticin. On the assay day, the medium of the subconfluent cultures is removed and the cells are detached by addition of 2.5 ml EDTA (0.02%) per 175 cm2 culture flask for 1 minute. The cells are resuspend in Ringer solution (140 mM NaCl, 5 mM KCl, 2.5 mM CaCl2, 1.5 mM MgCl2, 5 mM Glucose, 10 mM Hepes; adjusted to pH 7.4 with NaOH), pooled and Ringer solution added to adjust the volume to 50 mL. The cell suspension is centrifuged for […] at 1500 U/min (425 g). The supernatant is removed and the cells washed a second time with 50 ml fresh Ringer solution and centrifuged again as before. The supernatant is again removed and the pellet resuspended in Ringer solution to 1,000,000 cells/ml (1×10^6 cells/mL). The cells are plated onto BD BioCoat Poly-D-Lysine 384 well plates (20.000 cells/well; 20 μl/well). The lid covered plates are then incubated until use at 37° C./10% CO2. For dye loading, 20 μl of Calcium-4 assay kit solution (prepared according to the manufacturer's description in Ringer solution) are added to the cells and the plates are incubated for 80 min 37° C. and then 10 min at room temperature.
Controls, Compound Dilution and Assay Execution:
Each assay plate contained wells with “high” and “low” controls:
Low controls 1% DMSO/ringer solution+basal glutamate activation (defined as 100% CTL).
High controls 10 μM CDPPB+basal glutamate activation (defined as 200% CTL).
Test compounds are dissolved and diluted in DMSO to 100-fold the desired concentrations. In a second step, the compounds are diluted in Ringer solution such that the compounds are 4-fold more concentrated than the desired final assay concentration. The final DMSO concentration was 1%.
20 μl of each compound solution are then transferred to the assay plate and the Ca2+ kinetic is measured to determine any intrinsic compound activity. After 5 min incubation in the FLIPR device, the second stimulation with 20 μl of glutamate in Ringer solution (glutamate concentration adjusted to approximately 5% basal stimulation of the maximal possible glutamate effect) is added and the kinetic Ca2+ response of the wells was measured for the modulation effect.
The peak height of the Ca release related fluorescence signal (9-66) is used for the EC50.
The EC50 of the modulation is calculated over a nonlinear regression with GraphPad Prism (Table 1).

T1 sequence (P41594 21-1212): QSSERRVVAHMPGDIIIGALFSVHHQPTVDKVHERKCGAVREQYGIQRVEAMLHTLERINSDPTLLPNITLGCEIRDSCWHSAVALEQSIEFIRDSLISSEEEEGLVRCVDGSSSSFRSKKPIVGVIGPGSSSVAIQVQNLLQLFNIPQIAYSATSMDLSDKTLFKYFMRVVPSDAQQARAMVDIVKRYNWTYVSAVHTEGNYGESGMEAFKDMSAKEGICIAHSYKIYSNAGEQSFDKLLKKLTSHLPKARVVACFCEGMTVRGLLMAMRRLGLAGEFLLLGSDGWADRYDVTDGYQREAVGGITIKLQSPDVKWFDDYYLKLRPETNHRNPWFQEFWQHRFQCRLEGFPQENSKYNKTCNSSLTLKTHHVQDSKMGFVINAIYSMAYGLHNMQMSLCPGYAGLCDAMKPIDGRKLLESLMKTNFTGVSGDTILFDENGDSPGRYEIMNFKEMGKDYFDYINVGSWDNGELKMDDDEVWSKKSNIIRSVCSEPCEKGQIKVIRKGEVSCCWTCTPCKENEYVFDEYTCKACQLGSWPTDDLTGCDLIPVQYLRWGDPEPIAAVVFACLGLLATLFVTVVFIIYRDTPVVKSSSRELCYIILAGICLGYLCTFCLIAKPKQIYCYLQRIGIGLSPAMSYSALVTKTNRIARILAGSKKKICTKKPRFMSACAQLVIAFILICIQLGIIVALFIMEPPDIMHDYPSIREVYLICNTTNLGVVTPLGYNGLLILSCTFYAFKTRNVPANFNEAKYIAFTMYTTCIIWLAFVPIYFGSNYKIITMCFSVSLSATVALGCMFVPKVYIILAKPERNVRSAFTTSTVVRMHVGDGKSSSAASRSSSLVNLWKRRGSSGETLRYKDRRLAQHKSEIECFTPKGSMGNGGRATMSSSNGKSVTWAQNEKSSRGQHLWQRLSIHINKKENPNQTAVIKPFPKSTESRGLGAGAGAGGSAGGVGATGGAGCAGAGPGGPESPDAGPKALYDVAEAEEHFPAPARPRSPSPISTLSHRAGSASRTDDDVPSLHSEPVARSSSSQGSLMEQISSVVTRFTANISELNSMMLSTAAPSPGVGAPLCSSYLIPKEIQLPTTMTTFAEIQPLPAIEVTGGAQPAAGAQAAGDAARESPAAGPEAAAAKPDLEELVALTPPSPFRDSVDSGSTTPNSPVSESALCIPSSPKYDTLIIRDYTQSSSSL

Row | pEC50 | SMILES
1 | 7.33 | Cc1ccc(C(=O)N2CCN(C(=O)c3ncn(-c4cccc(Cl)c4)n3)C(C)(C)C2)cc1Cl [Example 71]
2 | 6.99 | COc1cccc(C(=O)N2CCN(C(=O)c3nnn(-c4ccccc4F)n3)C(C)(C)C2)n1 [Example 201]
3 | 6.54 | CC1(C)CN(C(=O)c2csc(C(F)(F)F)n2)CCN1C(=O)c1ncn(-c2ccccc2)n1 [Example 152]
4 | 6.84 | Cc1cc(C(=O)N2CCN(C(=O)c3ncn(-c4cccc(Cl)c4)n3)C(C)(C)C2)ccc1Cl [Example 65]
5 | 6.03 | COc1ccc2c(C)c(C(=O)N3CCN(C(=O)c4ncn(-c5cccc(Cl)c5)n4)C(C)C3)oc2c1 (centres unmarked) [Example 278]
6 | 6.87 | Cn1ccc2cc(C(=O)N3CCN(C(=O)c4ncn(-c5ccccc5)n4)C(C)(C)C3)ccc21 [Example 138]
7 | 6.85 | Cc1c(C(=O)N2CCN(C(=O)c3ncn(-c4ccccc4)n3)C(C)(C)C2)n(C)c2ccccc12 [Example 110]
8 | 6.75 | COc1cc2cc(C(=O)N3CCN(C(=O)c4ncn(-c5cccc(Cl)c5)n4)C(C)(C)C3)nc(OC)c2cc1OC [Example 32]
9 | 7.55 | CCCOc1nc(C(=O)N2CCN(C(=O)c3ncn(-c4ccccc4)n3)C(C)(C)C2)cc2ccccc12 [Example 99]
10 | 6.22 | CC1CN(C(=O)c2ncn(-c3cccc(Cl)c3)n2)CCN1C(=O)c1sc2ccccc2c1Cl (centres unmarked) [Example 226]
11 | 6.39 | Cc1c(C(=O)N2CCN(C(=O)c3ncn(-c4cccc(Cl)c4)n3)CC2C)oc2ccccc12 (centres unmarked) [Example 228]
12 | 6.88 | Cc1oc2ccccc2c1C(=O)N1CCN(C(=O)c2ncn(-c3cccc(F)c3)n2)C(C)(C)C1 [Example 5]
13 | 6.76 | CCC1CN(C(=O)c2ncn(-c3cccc(Cl)c3)n2)CCN1C(=O)c1cccc(OC)n1 (centres unmarked) [Example 258, {4-[1-(3-Chloro-phenyl)-1H-[1,2,4]triazole-3-carbonyl]-2-ethyl-piperazin-1-yl}-(6-methoxy-pyridin-2-yl)-methanone]
14 | 5.92 | COc1cc(C(=O)N2CCN(C(=O)c3ncn(-c4ccccc4)n3)C(C)C2)ccc1C (centres unmarked) [Example 292]
15 | 6.24 | CC1CN(C(=O)c2ncn(-c3cccc(Cl)c3)n2)CCN1C(=O)c1cn(C)c2ccccc12 (centres unmarked) [Example 230]
16 | 6.73 | CC(C)c1cccc(C(=O)N2CCN(C(=O)c3ncn(-c4ccccc4)n3)C(C)(C)C2)n1 [Example 206, [4-(6-isopropyl-pyridine-2-carbonyl)-2,2-dimethyl-piperazin-1-yl]-(1-phenyl-1H-[1,2,4]triazol-3-yl)-methanone]
17 | 7.07 | CC1(C)CN(C(=O)c2cc(Cl)c3c(c2)OCCO3)CCN1C(=O)c1ncn(-c2cccc(F)c2)n1 [Example 3]
18 | 7.82 | CC1(C)CN(C(=O)c2cccc(C(F)(F)F)n2)CCN1C(=O)c1nnn(-c2ccccc2)n1 [Example 168]
19 | 6.12 | COc1cccc(C(=O)N2CCN(C(=O)c3ncn(-c4cccc(F)c4)n3)C3(CCC3)C2)n1 [Example 307]
20 | 6.29 | COc1cc(C(=O)N2CCN(C(=O)c3ncn(-c4cccc(Cl)c4)n3)C(C)C2)ccc1C (centres unmarked) [Example 277]
21 | 7.44 | Cc1cccc(-n2nnc(C(=O)N3CCN(C(=O)c4cccc(Cl)c4)CC3(C)C)n2)c1 [Example 189]
22 | 5.75 | CC1CN(C(=O)c2ncn(-c3cccc(Cl)c3)n2)CCN1C(=O)c1ccc(Cl)s1 (centres unmarked) [Example 231]
23 | 6.46 | CC1CN(C(=O)c2ccc3ccn(C)c3c2)CCN1C(=O)c1ncn(-c2cccc(Cl)c2)n1 (centres unmarked) [Example 272]
24 | 7.30 | CC(C)Oc1nc(C(=O)N2CCN(C(=O)c3ncn(-c4ccccc4)n3)C(C)(C)C2)cc2ccccc12 [Example 118]
25 | 6.21 | COc1cccc(C(=O)N2CCN(C(=O)c3ncn(-c4ccccc4)n3)C(C)C2)n1 (centres unmarked) [Example 298]
26 | 6.05 | Cc1cccc(-n2cnc(C(=O)N3C[C@@H](C)N(C(=O)c4oc5ccc(Cl)cc5c4C)[C@@H](C)C3)n2)c1 [Example 264]
